In ChEMBL document CHEMBL3132769, “Fragment growing to retain or alter the selectivity of anchored kinase hinge-binding fragments” (Medchemcomm, 2014):

Columns and labels:
[1] = biological target: T1, Serine/threonine-protein kinase 3 (Homo sapiens) (UniProt Q13188); assay: Inhibition of human full length MST2 expressed in baculovirus assessed as substrate phosphorylation using fluorescence-labelled peptides as substrate at 95 uM after 90 mins by microfluidic peptide phosphorylation assay
T1 sequence (whole entry): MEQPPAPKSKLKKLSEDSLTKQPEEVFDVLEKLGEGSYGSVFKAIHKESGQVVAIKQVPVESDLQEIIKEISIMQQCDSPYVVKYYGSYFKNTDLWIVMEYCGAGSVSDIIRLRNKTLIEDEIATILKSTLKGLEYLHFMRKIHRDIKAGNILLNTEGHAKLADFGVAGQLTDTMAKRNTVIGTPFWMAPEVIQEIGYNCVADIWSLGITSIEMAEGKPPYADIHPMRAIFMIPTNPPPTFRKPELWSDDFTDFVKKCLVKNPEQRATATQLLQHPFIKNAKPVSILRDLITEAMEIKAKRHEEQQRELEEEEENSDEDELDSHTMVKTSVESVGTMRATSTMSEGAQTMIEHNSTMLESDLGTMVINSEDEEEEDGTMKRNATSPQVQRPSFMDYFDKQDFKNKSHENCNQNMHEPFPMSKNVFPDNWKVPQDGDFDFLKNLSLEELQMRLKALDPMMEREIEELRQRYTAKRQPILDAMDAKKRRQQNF

[2] = biological target: Ribosomal protein S6 kinase alpha-4 (Homo sapiens) (UniProt O75676); assay: Inhibition of human full length MSK2 expressed in baculovirus assessed as substrate phosphorylation using fluorescence-labelled peptides as substrate at 95 uM after 90 mins by microfluidic peptide phosphorylation assay
Chain of Ribosomal protein S6 kinase alpha-4 (Homo sapiens) (O75676 whole entry, looked up): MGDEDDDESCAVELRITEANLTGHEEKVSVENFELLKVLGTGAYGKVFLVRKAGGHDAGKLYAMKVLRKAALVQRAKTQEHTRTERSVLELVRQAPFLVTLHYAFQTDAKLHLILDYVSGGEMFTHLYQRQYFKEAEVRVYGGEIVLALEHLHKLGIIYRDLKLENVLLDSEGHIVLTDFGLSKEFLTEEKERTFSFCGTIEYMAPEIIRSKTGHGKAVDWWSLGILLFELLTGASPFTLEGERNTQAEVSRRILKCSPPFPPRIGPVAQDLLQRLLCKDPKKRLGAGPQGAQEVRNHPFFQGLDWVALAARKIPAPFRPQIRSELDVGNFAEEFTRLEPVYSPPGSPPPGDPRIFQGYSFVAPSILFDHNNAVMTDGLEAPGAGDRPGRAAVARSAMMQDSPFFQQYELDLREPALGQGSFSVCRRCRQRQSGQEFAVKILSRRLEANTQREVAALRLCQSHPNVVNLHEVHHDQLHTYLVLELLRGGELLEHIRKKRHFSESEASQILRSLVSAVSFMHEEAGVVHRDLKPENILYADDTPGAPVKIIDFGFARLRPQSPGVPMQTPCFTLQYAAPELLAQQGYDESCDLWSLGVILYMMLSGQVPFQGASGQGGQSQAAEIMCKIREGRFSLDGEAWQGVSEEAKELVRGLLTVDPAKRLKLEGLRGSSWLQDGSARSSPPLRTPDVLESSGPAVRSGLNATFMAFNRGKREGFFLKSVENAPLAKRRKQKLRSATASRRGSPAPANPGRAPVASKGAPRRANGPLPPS

[3] = biological target: Mitogen-activated protein kinase 3 (Homo sapiens) (UniProt P27361); assay: Inhibition of human full length ERK1 expressed in Escherichia coli cell assessed as substrate phosphorylation using fluorescence-labelled peptides as substrate at 95 uM after 90 mins by microfluidic peptide phosphorylation assay
Chain of Mitogen-activated protein kinase 3 (Homo sapiens) (P27361 whole entry): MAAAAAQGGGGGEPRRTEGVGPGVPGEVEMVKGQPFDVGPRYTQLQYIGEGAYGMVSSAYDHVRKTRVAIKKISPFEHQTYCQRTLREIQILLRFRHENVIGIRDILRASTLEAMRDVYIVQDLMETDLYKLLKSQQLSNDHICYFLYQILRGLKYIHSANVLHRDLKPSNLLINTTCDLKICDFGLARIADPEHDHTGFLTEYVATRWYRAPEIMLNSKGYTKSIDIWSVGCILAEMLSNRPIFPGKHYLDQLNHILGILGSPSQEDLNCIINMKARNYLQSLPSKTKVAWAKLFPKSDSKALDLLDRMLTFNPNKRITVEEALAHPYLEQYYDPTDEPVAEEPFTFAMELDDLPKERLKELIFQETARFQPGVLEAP

[4] = biological target: T1, Serine/threonine-protein kinase 3 (Homo sapiens); assay: Inhibition of human full length MST2 expressed in baculovirus assessed as substrate phosphorylation using fluorescence-labelled peptides as substrate at 0.2 uM after 90 mins by microfluidic peptide phosphorylation assay
[5] = biological target: MAP kinase-activated protein kinase 2 (Homo sapiens) (UniProt P49137); assay: Inhibition of human full length MAPKAPK2 expressed in baculovirus assessed as substrate phosphorylation using fluorescence-labelled peptides as substrate at 2 uM after 90 mins by microfluidic peptide phosphorylation assay
Chain of MAP kinase-activated protein kinase 2 (Homo sapiens) (P49137 whole entry, looked up): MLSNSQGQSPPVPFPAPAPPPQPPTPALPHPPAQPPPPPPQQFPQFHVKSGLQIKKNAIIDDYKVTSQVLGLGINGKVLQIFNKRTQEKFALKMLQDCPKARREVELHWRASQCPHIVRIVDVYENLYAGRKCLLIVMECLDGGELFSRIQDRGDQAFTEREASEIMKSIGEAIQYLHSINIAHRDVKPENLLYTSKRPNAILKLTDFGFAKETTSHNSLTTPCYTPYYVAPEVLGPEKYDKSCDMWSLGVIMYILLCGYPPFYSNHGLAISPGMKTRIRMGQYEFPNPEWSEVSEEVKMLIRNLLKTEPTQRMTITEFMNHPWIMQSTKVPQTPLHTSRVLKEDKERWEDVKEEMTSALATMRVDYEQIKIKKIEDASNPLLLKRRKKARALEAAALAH

[6] = biological target: T2, MAP kinase-activated protein kinase 5 (Homo sapiens) (UniProt Q8IW41); assay: Inhibition of human full length PRAK expressed in baculovirus assessed as substrate phosphorylation using fluorescence-labelled peptides as substrate at 1000 uM after 90 mins by microfluidic peptide phosphorylation assay
T2 sequence (whole entry): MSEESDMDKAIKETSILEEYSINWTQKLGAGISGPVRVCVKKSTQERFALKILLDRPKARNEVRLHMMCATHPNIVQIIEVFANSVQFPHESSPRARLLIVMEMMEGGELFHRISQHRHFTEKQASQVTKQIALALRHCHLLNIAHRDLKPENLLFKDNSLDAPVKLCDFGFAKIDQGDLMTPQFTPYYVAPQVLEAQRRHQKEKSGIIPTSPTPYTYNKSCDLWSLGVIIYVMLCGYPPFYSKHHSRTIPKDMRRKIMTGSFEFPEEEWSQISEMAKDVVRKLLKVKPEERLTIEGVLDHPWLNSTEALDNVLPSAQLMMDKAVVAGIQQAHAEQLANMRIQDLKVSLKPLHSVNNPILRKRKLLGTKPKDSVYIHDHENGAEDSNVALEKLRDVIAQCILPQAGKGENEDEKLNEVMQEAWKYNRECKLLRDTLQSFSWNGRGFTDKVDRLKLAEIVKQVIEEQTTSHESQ

[7] = biological target: Vascular endothelial growth factor receptor 2 (Homo sapiens) (UniProt P35968); assay: Inhibition of human KDR cytoplasmic domain expressed in baculovirus assessed as substrate phosphorylation using fluorescence-labelled peptides as substrate at 1000 uM after 90 mins by microfluidic peptide phosphorylation assay
Chain of Vascular endothelial growth factor receptor 2 (Homo sapiens) (P35968 whole entry, the tested form may be a part): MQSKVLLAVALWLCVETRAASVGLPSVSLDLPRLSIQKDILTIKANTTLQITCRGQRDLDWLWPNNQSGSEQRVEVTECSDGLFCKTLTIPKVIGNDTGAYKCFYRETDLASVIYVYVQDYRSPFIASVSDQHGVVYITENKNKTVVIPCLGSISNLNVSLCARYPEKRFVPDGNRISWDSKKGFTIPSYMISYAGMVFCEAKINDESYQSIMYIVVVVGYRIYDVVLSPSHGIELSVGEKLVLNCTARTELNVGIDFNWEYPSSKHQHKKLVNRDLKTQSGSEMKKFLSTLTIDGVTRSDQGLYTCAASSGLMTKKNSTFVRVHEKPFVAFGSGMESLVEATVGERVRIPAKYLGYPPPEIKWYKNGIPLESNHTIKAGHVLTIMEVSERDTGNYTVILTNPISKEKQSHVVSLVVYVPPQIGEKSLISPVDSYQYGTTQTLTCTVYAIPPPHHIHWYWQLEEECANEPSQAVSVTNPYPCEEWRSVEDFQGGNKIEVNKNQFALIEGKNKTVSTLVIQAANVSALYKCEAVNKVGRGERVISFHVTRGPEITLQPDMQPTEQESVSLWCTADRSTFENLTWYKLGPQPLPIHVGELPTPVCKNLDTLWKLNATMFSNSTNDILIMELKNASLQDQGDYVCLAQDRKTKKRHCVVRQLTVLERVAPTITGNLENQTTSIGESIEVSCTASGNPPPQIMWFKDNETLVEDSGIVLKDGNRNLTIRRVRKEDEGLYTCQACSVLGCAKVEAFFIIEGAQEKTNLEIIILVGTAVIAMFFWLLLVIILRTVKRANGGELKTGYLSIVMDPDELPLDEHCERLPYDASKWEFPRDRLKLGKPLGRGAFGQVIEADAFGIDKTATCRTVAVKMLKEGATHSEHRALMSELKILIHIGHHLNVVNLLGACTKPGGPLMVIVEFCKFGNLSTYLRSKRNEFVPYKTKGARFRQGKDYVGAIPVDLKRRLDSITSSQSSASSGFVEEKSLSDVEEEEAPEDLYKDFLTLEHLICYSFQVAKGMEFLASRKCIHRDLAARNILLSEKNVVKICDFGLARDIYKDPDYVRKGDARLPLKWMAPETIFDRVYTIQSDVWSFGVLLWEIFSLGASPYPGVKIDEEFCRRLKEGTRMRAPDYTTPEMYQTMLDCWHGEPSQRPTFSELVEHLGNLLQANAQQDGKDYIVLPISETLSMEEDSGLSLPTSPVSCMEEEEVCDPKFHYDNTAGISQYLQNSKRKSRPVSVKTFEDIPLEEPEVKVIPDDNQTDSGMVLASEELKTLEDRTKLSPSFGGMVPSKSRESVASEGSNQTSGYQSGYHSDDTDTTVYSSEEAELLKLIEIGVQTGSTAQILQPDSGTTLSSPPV

[8] = biological target: Fibroblast growth factor receptor 2 (Homo sapiens) (UniProt P21802); assay: Inhibition of human FGFR2 catalytic domain expressed in baculovirus assessed as substrate phosphorylation using fluorescence-labelled peptides as substrate at 1000 uM after 90 mins by microfluidic peptide phosphorylation assay
[9] = biological target: RAC-alpha serine/threonine-protein kinase (Homo sapiens) (UniProt P31749); conditions: 0.06 uM
Chain of RAC-alpha serine/threonine-protein kinase (Homo sapiens) (P31749 whole entry, the tested form may be a part): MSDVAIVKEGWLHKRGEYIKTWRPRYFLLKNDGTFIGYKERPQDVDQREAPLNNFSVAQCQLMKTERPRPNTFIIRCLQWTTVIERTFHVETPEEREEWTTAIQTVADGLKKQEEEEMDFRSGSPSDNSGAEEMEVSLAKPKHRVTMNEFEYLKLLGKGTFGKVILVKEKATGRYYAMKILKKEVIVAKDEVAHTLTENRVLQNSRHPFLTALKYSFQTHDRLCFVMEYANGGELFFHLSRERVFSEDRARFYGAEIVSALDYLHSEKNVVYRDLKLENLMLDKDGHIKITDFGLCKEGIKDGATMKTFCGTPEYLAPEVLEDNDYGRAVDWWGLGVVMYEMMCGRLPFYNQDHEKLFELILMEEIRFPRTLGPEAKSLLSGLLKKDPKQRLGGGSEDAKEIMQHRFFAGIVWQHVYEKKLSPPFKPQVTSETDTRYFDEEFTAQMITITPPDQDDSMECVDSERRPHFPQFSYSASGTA
Description: Inhibition of human AKT1 catalytic domain expressed in baculovirus assessed as substrate phosphorylation using fluorescence-labelled peptides as substrate at 0.06 uM after 90 mins by microfluidic peptide phosphorylation assay

[10] = system: Tyrosine-protein kinase ABL1 (Homo sapiens), P00519 [T315I]; assay: Inhibition of human truncated ABL T315I mutant expressed in baculovirus assessed as substrate phosphorylation using fluorescence-labelled peptides as substrate at 0.06 uM after 90 mins by microfluidic peptide phosphorylation assay
[11] = biological target: Ribosomal protein S6 kinase alpha-1 (Homo sapiens) (UniProt Q15418); assay: Inhibition of human full length RSK1 expressed in baculovirus assessed as substrate phosphorylation using fluorescence-labelled peptides as substrate at 0.06 uM after 90 mins by microfluidic peptide phosphorylation assay
Chain of Ribosomal protein S6 kinase alpha-1 (Homo sapiens) (Q15418 whole entry, the tested form may be a part): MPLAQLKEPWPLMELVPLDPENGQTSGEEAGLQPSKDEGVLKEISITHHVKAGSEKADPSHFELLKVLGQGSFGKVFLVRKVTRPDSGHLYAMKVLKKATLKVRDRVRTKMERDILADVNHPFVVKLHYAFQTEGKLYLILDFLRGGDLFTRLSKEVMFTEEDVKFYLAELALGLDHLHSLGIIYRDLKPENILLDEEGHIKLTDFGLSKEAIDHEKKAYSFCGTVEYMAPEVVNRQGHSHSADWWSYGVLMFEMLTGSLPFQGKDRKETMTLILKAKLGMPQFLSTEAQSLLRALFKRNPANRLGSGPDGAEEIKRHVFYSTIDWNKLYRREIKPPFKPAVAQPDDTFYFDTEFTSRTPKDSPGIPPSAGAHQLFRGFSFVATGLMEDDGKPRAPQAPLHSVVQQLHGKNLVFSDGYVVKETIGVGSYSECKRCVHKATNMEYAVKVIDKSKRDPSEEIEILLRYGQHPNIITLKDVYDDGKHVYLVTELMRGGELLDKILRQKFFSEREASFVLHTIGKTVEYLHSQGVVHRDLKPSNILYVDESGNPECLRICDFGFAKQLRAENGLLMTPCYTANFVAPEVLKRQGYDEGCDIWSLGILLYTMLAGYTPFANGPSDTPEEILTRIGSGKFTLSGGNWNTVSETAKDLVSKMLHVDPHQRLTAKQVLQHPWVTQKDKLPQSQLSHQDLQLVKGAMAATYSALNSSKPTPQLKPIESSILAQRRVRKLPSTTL

[12] = biological target: RAC-alpha serine/threonine-protein kinase (Homo sapiens) (UniProt P31749); assay: Inhibition of human AKT1 catalytic domain expressed in baculovirus assessed as substrate phosphorylation using fluorescence-labelled peptides as substrate at 420 uM after 90 mins by microfluidic peptide phosphorylation assay
[13] = biological target: RAF proto-oncogene serine/threonine-protein kinase (Homo sapiens) (UniProt P04049); assay: Inhibition of human truncated c-Raf expressed in baculovirus assessed as substrate phosphorylation using fluorescence-labelled peptides as substrate at 420 uM after 90 mins by microfluidic peptide phosphorylation assay
Chain of RAF proto-oncogene serine/threonine-protein kinase (Homo sapiens) (P04049 whole entry, the tested form may be a part): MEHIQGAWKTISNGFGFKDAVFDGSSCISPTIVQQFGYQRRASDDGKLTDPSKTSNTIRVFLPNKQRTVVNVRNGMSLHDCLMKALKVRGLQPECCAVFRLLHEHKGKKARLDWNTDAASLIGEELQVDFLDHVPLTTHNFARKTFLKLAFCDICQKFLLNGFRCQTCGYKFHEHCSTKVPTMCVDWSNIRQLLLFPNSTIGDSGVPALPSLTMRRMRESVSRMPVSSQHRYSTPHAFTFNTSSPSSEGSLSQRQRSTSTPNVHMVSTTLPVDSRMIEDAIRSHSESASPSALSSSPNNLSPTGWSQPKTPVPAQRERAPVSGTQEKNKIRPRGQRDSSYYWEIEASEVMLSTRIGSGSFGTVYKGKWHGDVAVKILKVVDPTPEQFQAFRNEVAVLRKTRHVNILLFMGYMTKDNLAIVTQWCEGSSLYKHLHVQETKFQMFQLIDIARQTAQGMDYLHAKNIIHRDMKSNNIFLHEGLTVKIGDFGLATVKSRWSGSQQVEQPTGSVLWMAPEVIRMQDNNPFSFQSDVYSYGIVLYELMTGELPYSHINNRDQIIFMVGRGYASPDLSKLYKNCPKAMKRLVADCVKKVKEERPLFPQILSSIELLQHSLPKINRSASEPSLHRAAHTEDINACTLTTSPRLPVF

[14] = biological target: T3, Calcium/calmodulin-dependent protein kinase type IV (Homo sapiens) (UniProt Q16566); assay: Inhibition of human full length CAMK4 expressed in baculovirus assessed as substrate phosphorylation using fluorescence-labelled peptides as substrate at 420 uM after 90 mins by microfluidic peptide phosphorylation assay
T3 sequence (whole entry): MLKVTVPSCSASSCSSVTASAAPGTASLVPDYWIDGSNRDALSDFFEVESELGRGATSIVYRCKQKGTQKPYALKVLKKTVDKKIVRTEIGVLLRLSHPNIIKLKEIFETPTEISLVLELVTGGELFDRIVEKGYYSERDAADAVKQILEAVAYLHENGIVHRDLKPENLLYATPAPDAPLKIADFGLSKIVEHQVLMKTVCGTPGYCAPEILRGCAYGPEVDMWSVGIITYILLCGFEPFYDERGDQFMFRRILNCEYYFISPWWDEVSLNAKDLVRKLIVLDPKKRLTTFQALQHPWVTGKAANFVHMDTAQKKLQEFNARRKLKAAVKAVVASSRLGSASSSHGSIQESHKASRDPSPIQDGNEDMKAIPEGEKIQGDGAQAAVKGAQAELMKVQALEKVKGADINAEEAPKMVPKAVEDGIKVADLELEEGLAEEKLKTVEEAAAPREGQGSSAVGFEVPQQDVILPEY

[15] = biological target: Ribosomal protein S6 kinase alpha-1 (Homo sapiens) (UniProt Q15418); assay: Inhibition of human full length RSK1 expressed in baculovirus assessed as substrate phosphorylation using fluorescence-labelled peptides as substrate at 70 uM after 90 mins by microfluidic peptide phosphorylation assay

NCCc1ccc(-c2ncnc3[nH]cnc23)cc1 gave an inhibition [1] of 86.5%, an inhibition [2] of 54% and an inhibition [3] of 59%.

In the case of Clc1ccc(C2(c3ccc(-c4ncnc5[nH]cnc45)cc3)CCNCC2)cc1, the inhibition [4] is reported as 2%.

With NC1CCN(c2ncnc3[nH]ccc23)CC1 the inhibition [5] was 33%.

In the case of c1cnc2[nH]ccc2c1, the inhibition [6] is reported as 77%, the inhibition [7] is reported as 89.5% and the inhibition [8] is reported as 62%.

For NC1(Cc2ccc(Cl)cc2)CCN(c2ncnc3[nH]ccc23)CC1, the inhibition [9] was 34%, the inhibition [10] was 0% and the inhibition [11] was 19.5%.

With c1nc(N2CCOCC2)c2nc[nH]c2n1 the inhibition [12] was 61.5%, the inhibition [13] was 52% and the inhibition [14] was 62%.

CNCc1ccc(-c2ncnc3[nH]cnc23)cc1 was tested, and the inhibition [15] was 48%.
